Experiment: In vitro hydrolysis of simvastatin formulations under simulated gastric conditions (dissolution in 0.1N HCl, HPLC)
Assay type: physicochemical
Details: 37° C.
Description: Generally, the simvastatin formulations were prepared by heating menthol to about 60° C. while stirring and adding a surface active agent (either TWEEN® or Poloxamer) and sodium ducosate or sodium lauryl sulfate. The mixture was stirred until all the components dissolved to form a melt. Thereafter, the melt was cooled to about 50° C., simvastatin was added during stirring until dissolved, the mixture was cooled to room temperature, and dispensed into capsules. After about an hour the liquid in the capsule had gelled. Each capsule was filled with enough formulation to have a dose of 20 mg of simvastatin.
Each formulation was tested by dissolution in 50 ml of 0.1N HCl at 37° C. with stirring. […] It was determined that the retention times for the simvastatin hydroxyl acid was 3.6 minutes and simvastatin lactone was 5.7 minutes.

CCC(C)(C)C(=O)O[C@H]1C[C@@H](C)C=C2C=C[C@H](C)[C@H](CCC3C[C@@H](O)CC(=O)O3)[C@H]21 (stereo partly drawn) [Simvastatin 100%]
0%: % hydrolyzed Simvastatin (0.1N HCl, 60 min, weight % hydrolyzed simvastatin from the initial simvastatin amount) | % converted to hydroxyl acid (0.1N HCl, 60 min, weight % of the total dissolved simvastatin in the open hydroxy acid form) | % Dissolved 60 min 0.1 N HCl (50 ml 0.1N HCl, stirring, total dissolved simvastatin (closed lactone + open hydroxy acid form), 20 mg capsule)

From patent US20050192340A1, “Simvastatin formulations and methods of making same” (priority 2003, published 2005)
